Read-outs that look alike come from different tables or passages of the source.
Key:
[1] = association with α-cyclodextrin by microcalorimetry; assay type: physicochemical
Source text: (§1) We have studied the association constant for the preferred compound according to the invention by a micro-calorimetric method which involves measuring the heat evolved when solutions of the platinum(II) compound and α-cyclodextrin are mixed and also by using a ^1 H n.m.r. spectroscopic approach.
For the microcalorimetry experiments, a solution of the platinum complex (0.02366 mol kg^-1) in water was mixed with a range of aqueous solutions of α-cyclodextrin (ca. 0.01-0.1 mol kg^-1) in a batch calorimeter operating at 25° C. A series of preliminary experiments was performed so that corrections for the contributions arising from the enthalpy of dilution of the two solutes could be made. The expression linking the enthalpy change per mol (ΔH) of Pt(NH3)2.CBDCAto the final molalities of both this guest (G) and the α-cyclodextrin host (H) and to the equilibrium constant (Ka) and the standard enthalpy change (ΔH⊖) for the equilibrium,
H+G.revreaction.H·G,
Ka =ΔH·ΔH⊖ /(ΔH⊖
[H]-ΔH[G])(ΔH⊖ -ΔH) (1)
In the Figure, the filled circles denote experimental points and the line denotes the analysis obtained using Equation (1). It is seen that good correlation is obtained between theory and practice.

[2] = association with α-cyclodextrin by 1H n.m.r. spectroscopy; assay type: physicochemical; settings: D2O, ca. 22° C.; corrected chemical shifts H-3 and H-a vs fraction bound
Method: as §1
For the spectroscopic approach, two types of spectroscopic investigations were performed in D2 O at ca. 22° C. using a Bruker AM250FT Spectrometer. In the first series of experiments, equimolar solutions of Pt(NH3)2.CBDCA and α-cyclodextrin were studied at various dilutions and, in the second series of experiments, the concentration of the platinum complex was kept constant and the concentration of the α-cyclodextrin was varied. When processing the chemical shift data, corrections were made to allow for the tendency of α-cyclodextrin to self-associate. […] The latter was calculated from the equilibrium constant, corrected to the aquamolal scale, obtained from the microcalorimetric measurements.

[3] = distribution of platinum in blood, urine and faeces following intravenous administration; assay type: in vivo, male Wistar albino rats; settings: rat, 24 hours
in vivo haematotoxicity = test: in vivo haematotoxicity; design: species or system male Wistar albino rats; settings: rat; for haematotoxicity and nephrotoxicity testing, comparison of the two compounds: blood samples days 1, 4, 8, 12 and 16 after injection, haematocrit, white blood cell counts, plasma urea nitrogen
Source text: (§2) The kidneys were also subjected to histological examination.

kidneys = test: in vivo nephrotoxicity; design: species or system male Wistar albino rats; settings: rat; for histological examination of the kidneys / plasma urea nitrogen levels / urine protein levels (proteinuria): in vivo; for gross nephrotoxicity: from plasma urea nitrogen
Source text: as §2

[4] = cited from earlier work

N.N.O=C([O-])C1(C(=O)[O-])CCC1.[Pt+4] [Pt(NH3)2.CBDCA, 1,1-cyclobutanedicarboxylatediammineplatinum(II)]
standard entropy change ΔS⊖ ([1]; association with α-cyclodextrin in water, recorded in FIG. 2): -27 J K^-1 mol^-1
tendency to associate with α-cyclodextrin ([1]; in water): very marked tendency to associate with α-cyclodextrin in water
standard enthalpy change ΔH⊖ ([1]; in water, 25° C., association with α-cyclodextrin): -21.0 ± 2.0 kJ/mol
association (equilibrium) constant Ka ([1]; in water, 25° C., α-cyclodextrin host): 199 ± 10 kg/mol
agreement between n.m.r. and thermodynamic results [2]: excellent agreement between the n.m.r. and thermodynamic results
faecal levels, Pt excretion [3]: 4-5%
urine levels, Pt excretion [3]: 65-67%
haematotoxicity and nephrotoxicity testing, comparison of the two compounds (in vivo haematotoxicity): Results as between the two test compounds were similar
histological examination of the kidneys (kidneys): Some nuclear enlargement of the kidneys
plasma urea nitrogen levels (kidneys): remained constant throughout the study period
urine protein levels (proteinuria) (kidneys): no obvious proteinuria was observed
gross nephrotoxicity (kidneys): no gross nephtrotoxicity
aqueous solubility (attainable concentration) (water): 50 mM
general toxicity ([4]; compared with certain other platinum-containing compounds, particularly cisplatin): relatively non-toxic
kidney toxicity ([4]; relative to cisplatin): reduced dramatically

inclusion compound of 1,1-cyclobutanedicarboxylatediammineplatinum(II) and α-cyclodextrin
faecal levels, Pt excretion [3]: 4-5%
urine levels, Pt excretion [3]: 65-67%
haematotoxicity and nephrotoxicity testing, comparison of the two compounds (in vivo haematotoxicity): Results as between the two test compounds were similar
anaemic and myelosuppressive response (in vivo haematotoxicity; inclusion compound compared with Pt(NH3)2.CBDCA alone): slightly less anaemic and myelosuppressive response
histological examination of the kidneys (kidneys): Some nuclear enlargement of the kidneys
plasma urea nitrogen levels (kidneys): remained constant throughout the study period
urine protein levels (proteinuria) (kidneys): no obvious proteinuria was observed
gross nephrotoxicity (kidneys): no gross nephtrotoxicity
aqueous solubility (attainable concentration) (aqueous α-cyclodextrin solution): approximately 200 mM

Reference: patent publication US4696918A, “Solubilized platinum compound” (Johnson Matthey Public Limited Company, priority 1984, dated 1987)
